In one assay the test system is CD19 sCAR T cells. The assay can be described thus: In vivo depletion of CD19 sCAR T cells by AP1903 in Nalm6-injected mice. On the procedure:
FIG. 40 is a series of flow cytometry graphs depicting that the suicide activation results in pheripheral depletion of the suicide CAR T cells. Mice were injected with Nalm6 cells and after 5 days were treated with 19 s CAR T cells. CD19s CAR T cells were sorted before injection based on scFV expression. Flow plots show peripheral T cells (CD3+, CD45+) on day 8 and day 26. CD19 sCAR T cells were depleted on day 10 by injection of AP1903 (10 mg/kg).
The quantification of T cells was done from several mice. Mice were treated with AP1903 on day 10 to deplete sCAR T cells.

In a further assay the test system is universal sCAR T cells. The assay can be described thus: Depletion of universal sCAR T cells by AP1903 in BT mice (qPCR, peripheral blood). The assay is classed as in vivo. Particulars: 4 weeks after AP1903 treatment (3 daily injections with 10 mg/kg). On the procedure: FIG. 44 is a schematic timeline of the experimental design of the in vivo experiment of the present invention. Using BT (bone marrow, liver, and thymus) mice for assessment of universal sCAR function in a non-oncology mouse model. Human fetal bone marrow and thymus were implanted into NSG mice on day −91. Validation of engraftment was done by flow cytometry on day −27. Universal T cells expressing CD19 sCAR T cells were injected on day 0, B cell depletion was assessed on day 10 and mice were treated with AP1903 (3 daily injections with 10 mg/kg). sCAR survival was assessed with qPCR.
A qPCR from peripheral blood WPRE copy number was performed with a gDNA, 4 weeks after AP1903 treatment.

Assay [1] deals with T1, FKBPFD furin degron domain fused to an anti-CD19 scFv CAR (Homo sapiens, UniProt P62942, F37V).
T1 construct: signal peptide (CD8 leader) (N); furin cleavage site (C); anti-CD19 scFv CAR (CD8 hinge, 4-1BB, CD3zeta) (C); expressed in transfected cells; host or cells: Jurkat T cells, lentiviral transduction
T1 sequence (P62942 with tags, fused parts or gaps F37V): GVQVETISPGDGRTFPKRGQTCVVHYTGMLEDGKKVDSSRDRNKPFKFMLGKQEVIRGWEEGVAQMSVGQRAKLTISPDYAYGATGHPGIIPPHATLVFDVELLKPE
The assay can be described thus: CAR expression by FACS in Jurkat T cells transduced with FKBPFD furin degron-anti-CD19 scFv CAR. The assay is classed as cell-based. The conditions noted are these: 1 μM Shield1. On the procedure:
The scFvs used in the CAR constructs that were assessed in Examples 3 were independently synthesized based on an anti-CD19 scFv sequence described above. […] The proteins used in the furin-degron constructs that were assessed in Examples 4-5 were independently synthesized based on publicly available sequence data.
Jurkat cell lines were transduced by spinoculation with lentiviral supernatant from 293T cells transfected with pELPS using the protein-furin domain regulated plasmid DNA.
Trimethoprim (TMP) was resuspended in DMSO. In all instances where concentrations not indicated, compounds were added for 24 hours in total prior to analysis by flow cytometry.
FKBPFD transduced cells treated with 1 μM Shield1. ERαFD transduced cells treated with 1 μM Bazedoxifene. DHFRFD transduced cells treated with 1 mM TMP. […] Black=UTD; Gray=construct, no compound; White=construct, compound.
On the technique in general: Flow cytometry measures light scatter and fluorescence of single cells or particles in a stream.

For a further assay, the system named is CD20 on-CAR. Description: CD20 on-CAR surface expression (MFI, flow cytometry) versus Shield-1 concentration. Format: cell-based. The text has this:
FIG. 36 is series of graphs illustrating the modulation of CAR surface expression with FKBP ligand Shield-1. CD20 on-CAR T cells were stained for CAR expression and the mean fluorescence intensity (MFI, assessed by flow cytometry) of the CAR signal was plotted against the Shield-1 concentration. […] Absence of Shield-1 results in ˜60% reduction of CD20 on-CAR expression (bottom graph).

The subject of another assay is CD19rev CAR T cells. Description: Titration of Shield-1 in CD19rev CAR T cells (remaining CAR+ cells, flow cytometry). The assay is classed as cell-based. The conditions noted are these: different doses of Shield-1 for 24 h. On the procedure:
FIG. 37 is a series of flow cytometry graphs depicting the titration of Shield-1 in CD19rev CAR. CD19rev CAR T cells (˜38% transduced) were incubated in different doses of Shield-1 for 24 h to assess dose-dependent caspase-9 acitvation. The remaining CAR+ cells were quantified by flow cytometry.

A further assay has as its system NALM6 (CD19+). The assay can be described thus: Killing assay with luciferized target cells (remaining luciferase activity). Particulars: presence or absence of bazedoxifene; 20 hours; versus parental CAR19.
The subject of the next assay is primary human T cells. The assay can be described thus: FurON CAR19 surface expression in primary human T cells (FACS, protein L). Format: cell-based. Particulars: cells prepared for the in vivo study; IL2 and 1 uM bazedoxifene; day 10. On the procedure:
Bazedoxifene and raloxifene were resuspended in DMSO. In all instances, where concentrations not indicated, compounds were added at 1 uM for 24 hours prior to analysis by flow cytometry.
. […] Cell number, size, and viability were also assessed.
Untransduced T cells (UTDs) and the parental CAR19 were used as controls. […] .
CART cells were generated by starting with blood from healthy apheresed donors whose naïve T cells were obtained by negative selection for T cells, CD4+ and CD8+ lymphocytes. These cells were activated by the addition of CD3/CD28 beads (Dynabeads® Human T-Expander CD3/CD28, Thermo Fisher Scientific) at a ratio of 1:3 (T cell to bead) in T cell medium (RPMI1640, 10% heat-inactivated fetal calf serum (FCS), 2 mM L-glutamine, lx Penicillin/Streptomycin, 100 μM non-essential amino acids, 1 mM Sodium Pyruvate, 10 mM Hepes, and 55 μM 2-mercaptoethanol) at 37° C., 5% CO2. T cells were cultured at 4×10^6 T cells (UTDs) or 5×10^6 (CART19 and FurON CART19) in 1 mL medium per well of a 24-well plate. […] T cells began to divide in a logarithmic growth pattern, which is monitored by measuring the cell counts per mL, and T cells are diluted in fresh medium every two days. […] On day 10 the cells are collected and the percentage of cells transduced (expressing the CD19-specific CAR on the cell surface) was determined by flow cytometry analysis on a FACS Fortessa (BD). […]

The next assay concerns CD19+ NALM6 cells. The assay can be described thus: Proliferation assay in co-culture with target cells (FACS, counting beads). Particulars: presence or absence of bazedoxifene; 4 days; versus parental CAR19.
The subject of assay [2] is NALM6, a CD19+ target cell line. The assay can be described thus: Cytokine secretion in co-culture with target cells. The conditions noted are these: presence or absence of bazedoxifene; 20 hours; versus parental CAR19.

Results on 3 molecules are retold here after US20230071283A1, “COMPOSITIONS AND METHODS FOR SELECTIVE PROTEIN EXPRESSION” (Novartis AG, priority 2017, published 2023).

Entries after “also recorded” stand apart in the source; their conditions may differ.

Turning to `CC[C@H](C(=O)N1CCCC[C@H]1C(=O)O[C@H](CCc1ccc(OC)c(OC)c1)c1cccc(OCC(=O)NCCNC(=O)COc2cccc([C@@H](CCc3ccc(OC)c(OC)c3)OC(=O)[C@@H]3CCCCN3C(=O)[C@@H](CC)c3cc(OC)c(OC)c(OC)c3)c2)c1)c1cc(OC)c(OC)c(OC)c1` [AP1903], the “T cells in spleen (human CD3 staining)” value with CD19 sCAR T cells (>2 weeks after AP1903 treatment) was “T cells are not detectable”. Besides, in the assay with CD19 sCAR T cells (AP1903 10 mg/kg on day 10, versus vehicle, 10 mg/kg), the “Peripheral T cells (CD3+, CD45+)” value is on record as “T cells are hardly detectable after suicide activation; also recorded: the T cell percentages drop in the AP1903 group”. Further, the “sCAR T cells in spleen (quantitative PCR)” value with CD19 sCAR T cells (AP1903 versus vehicle treated mice) is “near-total sCAR absence in most mice”. Also, the “sCAR T cells in peripheral blood (qPCR, WPRE copy number)” value with universal sCAR T cells is reported as “can be depleted with AP1903 treatment; also recorded: near-total sCAR absence in 2/3 mice”.
For `CC[C@H](C(=O)N1CCCC[C@H]1C(=O)O[C@H](CCc1ccc(OC)c(OC)c1)c1cccc(OCCN2CCOCC2)c1)c1cc(OC)c(OC)c(OC)c1` [Shield1, Shield-1], in assay [1], the “Expression of the anti-CD19 scFv” value is “inducible in the presence of compound; also recorded: inducible by the stabilizing compound”; the “Kinetics of CAR expression following compound addition” value was “occurs rapidly following compound addition and is stable throughout the period of compound treatment”. Also, the “CAR expression (MFI) versus Shield-1 concentration” value in the assay with CD20 on-CAR (CD20 on-CAR T cells) is listed as “dose-dependent increase in CAR expression”. Also, the “reduction of CD20 on-CAR expression” value in the assay on CD20 on-CAR (absence of Shield-1) is reported as about 60%. For the same molecule, in the assay on CD19rev CAR T cells, the “caspase-9 activation and apoptosis (proportion of CAR+ cells)” value was “lower doses of Shield-1 result in higher caspase-9 activation and increased apoptosis”.

B1: construct #130: furin degron with fewer mutations (ERmut2) fused to anti-CD19 scFV CAR; same furin cleavage sequence as #106 (protein)
chain: RSSLALSLTADQMVSALLDAEPPILYSEYDPTRPFSEASMMGLLTNLADRELVHMINWAKRVPGFVDLTLHDQVHLLECAWMEILMIGLVWRSMEHPGKLLFAPNLLLDRNQGKCVEGGVEIFDMLLATSSRFRMMNLQGEEFVCLKSIILLNSGVYTFLSSTLKSLEEKDHIHRVLDKITDTLIHLMAKAGLTLQQQHQRLAQLLLILSHIRHMSNKRMEHLYSMKCKNVVPLSDLLLEMLDAHRLGTGAEDPRPSRKRRSLGDVGEIVMTQSPATLSLSPGERATLSCRASQDISKYLNWYQQKPGQAPRLLIYHTSRLHSGIPARFSGSGSGTDYTLTISSLQPEDFAVYFCQQGNTLPYTFGQGTKLEIKGGGGSGGGGSGGGGSQVQLQESGPGLVKPSETLSLTCTVSGVSLPDYGVSWIRQPPGKGLEWIGVIWGSETTYYSSSLKSRVTISKDNSKNQVSLKLSSVTAADTAVYYCAKHYYYGGSYAMDYWGQGTLVTVSSTTTPAPRPPTPAPTIASQPLSLRPEACRPAAGGAVHTRGLDFACDIYIWAPLAGTCGVLLLSLVITLYCKRGRKKLLYIFKQPFMRPVQTTQEEDGCSCRFPEEEEGGCELRVKFSRSADAPAYKQGQNQLYNELNLGRREEYDVLDKRRGRDPEMGGKPRRKNPQEGLYNELQKDKMAEAYSEIGMKGERRRGKGHDGLYQGLSTATKDTYDALHMQALPPR
Turning to B1, the Percent tumor lysis result in the assay on NALM6 (CD19+) was “kill CD19+ tumor cells, in a stabilizing compound- and target-dependent manner and is noninferior to the parental CAR construct”. The “surface expression (mean fluorescence intensity, MFI)” value in the assay on primary human T cells is on record as “lower than the observed for CART19”. Moreover, the Proliferation entry in the assay with CD19+ NALM6 cells was “proliferate in the presence of CD19+ tumor cells, in a manner that is stabilizing compound-dependent and is noninferior to the parental CAR construct”. The “levels of IFNγ” value in assay [2] is “secrete cytokines in the presence of CD19+ tumor cells, in a manner that is stabilizing compound-dependent and is noninferior to the parental CAR construct”.
